Source: patent publication US3980794A, “Method for promoting growth of poultry with 3-(5-nitro-2-imidazolyl)pyrazoles” (Eli Lilly and Company, priority 1975, dated 1976)
Values after ≈ are worked out from the molar mass of the structure shown.

Columns and labels:
[1] = tested on: Salmonella typhimurium; assay: Activity against Salmonella typhimurium in chicks when administered in the feed (Experiment 4); assay type: in vivo; settings: for Final Avg. Chicken Wt.: tenth day
Description: The activity of certain of the nitroimidazoles against Salmonella typhimurium in chicks when administered in the feed was determined.
One-day-old chicks, divided into groups of 12, were given compound 1, 6, or 7 in the feed at levels of 100 g. per ton, 50 g. per ton, 25 g. per ton, and 10 g. per ton continuously throughout the experiments. Several replicates of nonmedicated infected control groups were included. Later on day 1, all replicates were given 50.0 ml. of a tryptose broth culture of S. typhimurium as their initial liquid for drinking. This was placed in the cage waterer and served as the challenge.
Daily records of mortality were maintained and survivors were weighed on the tenth day of the experiment, the day of termination. The compounds tested are identified by the numbers 1, 6, and 7, as set forth hereinabove. In the chart, column 1 lists the test compound; column 2, the dosage level of test compound in grams per ton of feed; column 3 lists the number of replicates run on each compound at each dosage level; column 4 lists the survival ratio; and column 5, the final average chicken weight.

[2] = tested on: Pasteurella multocida; assay: Oral activity against Pasteurella multocida-caused infection in chickens (Experiment 5A); assay type: in vivo; settings: 100 g./ton in feed
Description: A. Selected examples of the novel compounds were evaluated for their oral activity against Pasteurella multocida-caused infection in chickens. Four to five-week-old chickens were divided into groups of eight, and the compounds administered thereto in the feed. Two replicates were run for each compound. Twenty-four hours after the chickens began receiving the compound in their feed, the treated groups, as well as the nontreated control groups, were challenged intravenously with a broth culture of P. multocida. […] The chicks were observed during seven days following the challenge and the mortality in the treated groups was compared to that of the control group. The heart and liver were removed from each chicken which died during the test and cultured to determine the presence of P. multocida. At the termination of the test, all surviving chickens were sacrificed, the heart and liver removed from each chicken and cultured to determine the presence of P. multocida.

[3] = tested on: P. multocida; assay: Oral activity against P. multocida in turkeys (Experiment 5B); assay type: in vivo; settings: 100 g./ton in feed
[4] = tested on: E. coli; assay: Oral activity against E. coli infection in chickens (Experiment 6); assay type: in vivo
Description: The evaluation of the effectiveness of selected nitroimidazoles for their oral activity against E. coli infection in chickens was accomplished as follows.
Broiler type, five-week-old chickens were wing-banded and individually weighed. Replicates of 8 chickens, each replicate having the same average chicken weight, were formed. Three replicates were run for each treatment. Treatment was initiated via the feed 24 hours prior to challenge. The E. coli challenge strain was No. 2- 1- 8. The challenge inoculum consisted of 0.5 ml. of 10^-^1 dilution of a 15-18 hour tryptose broth culture administered into the right thoracic air sac of each chicken. Eight to ten days following challenge, all surviving chickens were weighed and examined for lesions. Any chicken that died during the experiment was also examined for lesions such as air sac lesions, pericarditis lesions, and perihepatitis lesions, and a culture made. The pre-treatment average weight per bird was 790 g. The test compounds were the same as before, identified as 1, 6, and 7.

[5] = tested on: Actinomyces bovis 13684; assay: Susceptibility of anaerobic bacteria, agar dilution; assay type: cell-based; settings: Actinomyces bovis, 13684, 24 h, read-out: 24 Hr. Minimum Inhibitory Concentration
[6] = tested on: Clostridium innocuum 1373; assay: as above; assay type: cell-based; settings: [Clostridium] innocuum, 1373, 24 h, read-out: 24 Hr. Minimum Inhibitory Concentration
[7] = tested on: Clostridium perfringens 81; assay: microbe, parasite or virus in culture; assay type: cell-based; settings: Clostridium perfringens, 81, 24 h, read-out: 24 Hr. Minimum Inhibitory Concentration
[8] = tested on: Clostridium ramosum 1313; assay: Susceptibility of anaerobic bacteria, agar dilution; assay type: cell-based; settings: Thomasclavelia ramosa, 1313, 24 h, read-out: 24 Hr. Minimum Inhibitory Concentration
[9] = tested on: Eubacterium aerofaciens 1235; assay: as above; assay type: cell-based; settings: Collinsella aerofaciens, 1235, 24 h, read-out: 24 Hr. Minimum Inhibitory Concentration
[10] = tested on: Peptococcus anaerobius 1428; assay: as above; assay type: cell-based; settings: 24 h, read-out: 24 Hr. Minimum Inhibitory Concentration
[11] = tested on: Peptostreptococcus intermedius 1264; assay: as above; assay type: cell-based; settings: 24 h; Peptostreptococcus intermedius 1264; read-out: 24 Hr. Minimum Inhibitory Concentration
[12] = tested on: Propionibacterium acnes 44; assay: as above; assay type: cell-based; settings: Cutibacterium acnes, 24 h; Propionibacterium acnes 44; read-out: 24 Hr. Minimum Inhibitory Concentration
[13] = tested on: Bacteroides fragilis sp. fragilis 1877; assay: as above; assay type: cell-based; settings: Bacteroides fragilis, 24 h, read-out: 24 Hr. Minimum Inhibitory Concentration
[14] = tested on: Bacteroides fragilis sp. thetaiotaomicron 1438; assay: as above; assay type: cell-based; settings: Bacteroides fragilis, 24 h, read-out: 24 Hr. Minimum Inhibitory Concentration
[15] = tested on: Bacteroides fragilis sp. vulgatus 1211; assay: as above; assay type: cell-based; settings: Bacteroides fragilis, 24 h, read-out: 24 Hr. Minimum Inhibitory Concentration
[16] = tested on: Fusobacterium symbiosum 1470; assay: as above; assay type: cell-based; settings: Fusobacterium, 1470, 24 h, read-out: 24 Hr. Minimum Inhibitory Concentration
[17] = tested on: Fusobacterium necrophorum 13859; assay: as above; assay type: cell-based; settings: Fusobacterium necrophorum, 13859, 24 h, read-out: 24 Hr. Minimum Inhibitory Concentration
[18] = tested on: Veillonella alcalescens 1; assay: as above; assay type: cell-based; settings: Veillonella parvula, 1, 24 h, read-out: 24 Hr. Minimum Inhibitory Concentration

Compound: CCCCOC=Nc1c(C#N)c(-c2ncc([N+](=O)[O-])n2C)nn1C [Compound 7, Butyl N-[4-Cyano-1-methyl-3-(1-methyl-5-nitro-2-imidazolyl)-pyrazol-5-yl]formimidate]
- Survival Ratio ([1]; 10 g./ton in feed): 25/36
- Final Avg. Chicken Wt. ([1]; 10 g./ton in feed): 100 g
- Survival Ratio ([1]; 25 g./ton in feed): 34/36
- Final Avg. Chicken Wt. ([1]; 25 g./ton in feed): 117 g
- Survival Ratio ([1]; 50 g./ton in feed): 36/36
- Final Avg. Chicken Wt. ([1]; 50 g./ton in feed): 121 g
- Survival Ratio ([1]; 100 g./ton in feed): 33/36
- Final Avg. Chicken Wt. ([1]; 100 g./ton in feed): 102 g
- Culture Isolation P. multocida ([2]; replicate 1): 2/ 8
- Survival Ratio ([2]; replicate 1): 6/ 8
- Culture Isolation P. multocida ([2]; replicate 2): 2/ 8
- Survival Ratio ([2]; replicate 2): 8/ 8
- Culture Isolation P. multocida ([2]; total): 4/16
- Survival Ratio ([2]; total): 14/16
- Culture Isolation P. multocida [3]: 0/5
- Survival Ratio [3]: 5/5
- Avg. Wt./Chicken ([4]; 100 g./ton in feed): 1023 g
- No. chickens with lesions/No. in group ([4]; 100 g./ton in feed): 15/24
- Survival Ratio ([4]; 100 g./ton in feed): 24/24
- Avg. Wt./Chicken ([4]; 200 g./ton in feed): 1033 g
- No. chickens with lesions/No. in group ([4]; 200 g./ton in feed): 23/24
- Survival Ratio ([4]; 200 g./ton in feed): 24/24
- Avg. Wt./Chicken ([4]; 300 g./ton in feed): 1132 g
- No. chickens with lesions/No. in group ([4]; 300 g./ton in feed): 6/24
- Survival Ratio ([4]; 300 g./ton in feed): 24/24
- MIC [5]: < 0.125 µg/mL
- MIC [6]: < 0.125 µg/mL
- MIC [7]: < 0.125 µg/mL
- MIC [8]: < 0.125 µg/mL
- MIC [9]: < 0.125 µg/mL
- MIC [10]: < 0.125 µg/mL
- MIC [11]: 2 µg/mL (≈ 6.04 µM)
- MIC [12]: > 32 µg/mL
- MIC [13]: < 0.125 µg/mL
- MIC [14]: < 0.125 µg/mL
- MIC [15]: < 0.125 µg/mL
- MIC [16]: < 0.125 µg/mL
- MIC [17]: < 0.125 µg/mL
- MIC [18]: < 0.125 µg/mL
